Experimental data published in US20230147588A1, “USE OF1,9-DECANEDIOL IN INHIBITING AMMONIA VOLATILIZATION FROM SOIL” (INSTITUTION OF SOIL SCIENCE, CHINESE ACADEMY OF SCIENCES, priority 2021, published 2023).

Tests used:
[1] = system: ammonia volatilization from soil; experiment: Soil column culture: effects of 1,9-decanediol on ammonia volatilization from soil (Test Example 1); conditions: paddy soil column, 21 days
Experimental: 1.1 test soil: the test soil type is paddy soil, and the texture is sandy loam. It is collected from 0~20 centimeters (cm) topsoil of the experimental field in Yingtan City, Jiangxi Province (28°15′N, 116°55′E), sieved with a 2 millimeters (mm) sieve, and mixed evenly. See Table 1 for basic physical and chemical properties.
1.3 experimental treatment: urea treatment (U) and 1,9-decanediol + urea treatment are set in experiments. Among them, 1, 9-decanediol is added in soil at four levels of 100 mg/kg, 200 mg/kg, 500 mg/kg, and 1000 mg/kg, numbered as: 1, 9-D-100, 1, 9-D-200, 1, 9-D-500, and 1, 9-D-1000 respectively. Each treatment is repeated three times. The nitrogen application rate is 200 mg nitrogen per kilogram soil.
A soil column culture method is used for the test (FIG. 1). The soil column is 18 centimeters (cm) in height and 5 cm in inner diameter, which is divided into a leak-proof layer, a soil-fertilizer mixed layer, a flooded layer, and an idle layer (also referred to as spare layer). […] The mixed solution is evenly applied to the soil-fertilizer mixture layer of the soil column, the water is added to maintain a flooded state, and the ammonia volatilization from soil is monitored for 21 consecutive days.

[2] = system: ammonia volatilization from soil; experiment: Soil column culture: effects of different inhibitors on ammonia volatilization from soil (Test Example 2); conditions: 21 days; for inhibition of ammonia volatilization from soil compared with the urea treatment (U): 200 mg N per kg soil; for order of inhibition effects of ammonia volatilization, from high to low: suffix -100 / -500 = addition in soil in mg/kg, with urea
Excerpt: A soil column culture method is used for the test (FIG. 1). The soil column is 18 centimeters (cm) in height and 5 cm in inner diameter, which is divided into a leak-proof layer, a soil-fertilizer mixed layer, a flooded layer, and an idle layer (also referred to as spare layer). A leak-proof pad and 1 cm thick quartz sand are placed in the leak-proof layer at a bottom of the soil column firstly to prevent soil leakage and simulate a real situation in the field, and then the experimental soil is added to the soil-fertilizer mixed layer, and after compaction, a bottom leaching switch is turned on and water is added to restore the soil activity. After one night of soil recovery activity, the bottom leaching switch is turned off, and the urea required for each treatment is mixed with 1,9-decanediol to prepare a mixed solution. The mixed solution is evenly applied to the soil-fertilizer mixture layer of the soil column, the water is added to maintain a flooded state, and the ammonia volatilization from soil is monitored for 21 consecutive days.
2.1 Test Soil: The Same as Test Example 1
2.2 test reagent: 1, 9-decanediol, the same as test example 1, dicyandiamide (DCD, C2H4N4), linolenic acid (LN, […]) and methyl 3-(4-hydroxyphenyl)propionate (MHPP, C10H12O3) are purchased from Sigma.
2.3 experimental treatments: urea treatment (U), DCD + urea treatment, LN + urea treatment, MHPP + urea treatment, and 1,9-decanediol + urea treatment are set in experiments, in which an addition of DCD in soil is 20 mg/kg, and additions of LN, MHPP and 1,9-decanediol in soil each includes 100 mg/kg and 500 mg/kg, numbered as: DCD, LN-100, LN-500, MHPP-100, MHPP-500, 1,9-D-100, and 1,9-D-500. Each treatment is repeated three times. The nitrogen application rate is 200 mg nitrogen per kilogram soil.
2.4 Experimental Steps: The Same as the Test Example 1

nitrification process = conditions: at low concentration; cited from earlier work
[3] = paddy soil column, additions 100 and 500 mg/kg with urea

SMILES: CC(O)CCCCCCCCO (centres unmarked) [1,9-decanediol]
- dose dependence of the inhibition effect of ammonia volatilization ([1]; 100 to 1000 mg/kg in soil with urea): more obvious with the increase of the dosage
- total amount of ammonia volatilization from soil compared with the treatment (U) without 1,9-decanediol ([1]; flooded, 100, 200, 500, 1000 mg/kg in soil with urea, 200 mg N per kg soil): significantly reduce the total amount of ammonia volatilization from soil
- ammonia volatilization from soil compared with LN and MHPP treatments [2, 3]: significantly lower than that from soil treated with LN and MHPP
- inhibition of ammonia volatilization from soil compared with the urea treatment (U) [2, 3]: can inhibit ammonia volatilization from soil
- order of inhibition effects of ammonia volatilization, from high to low [2]: 1,9-D-500 > LN-500 > 1,9-D-100 >MHPP-500 > LN-100 > MHPP-100
- inhibition of the nitrification process (nitrification process): can inhibit the nitrification process at low concentration

SMILES: COC(=O)CCc1ccc(O)cc1 [MHPP, methyl 3-(4-hydroxyphenyl)propionate, reference compound]
- inhibition of ammonia volatilization from soil compared with the urea treatment (U) [2, 3]: can inhibit ammonia volatilization from soil
- order of inhibition effects of ammonia volatilization, from high to low [2]: 1,9-D-500 > LN-500 > 1,9-D-100 >MHPP-500 > LN-100 > MHPP-100
